Laboratory results: ChEMBL document CHEMBL1201862, “PubChem BioAssay data set” (2004)
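Exposure lasted 48 hours, with cells grown in 96-well plates and compounds tested at five concentrations. Here, GI50 denotes the concentration required for 50% inhibition of growth.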 Calls of active or inactive are those of the source. Cut-off read from the data, not from the text of the source: active = GI50 up to about 1.1 µM and inactive = higher.

Legend:
Assay in all cases: NCI tumour cell line growth inhibition, 48 h
[1] = test system: 786-0
[2] = test system: CAKI-1
[3] = test system: DMS-273
[4] = test system: HOP-92
[5] = test system: IGROV-1
[6] = test system: KM12
[7] = test system: NCI-H522
[8] = test system: OVCAR-3
[9] = test system: OVCAR-4
[10] = test system: SF-295
[11] = test system: SK-MEL-28
[12] = test system: SK-MEL-2
[13] = test system: SK-OV-3
[14] = test system: SNB-19
[15] = test system: HCT-116
[16] = test system: NCI-H226
[17] = test system: DU-145
[18] = test system: MCF7
[19] = test system: MDA-MB-435
[20] = test system: NCI/ADR-RES

Row | Structure (SMILES) | GI50 [1] | GI50 [2] | GI50 [3] | GI50 [4] | GI50 [5] | GI50 [6] | GI50 [7] | GI50 [8] | GI50 [9] | GI50 [10] | GI50 [11] | GI50 [12] | GI50 [13] | GI50 [14] | GI50 [15] | GI50 [16] | GI50 [17] | GI50 [18] | GI50 [19] | GI50 [20]
1 | COC(=O)c1nc(N)nc(O)c1CCCCCc1c(O)nc(N)nc1C(=O)OC | > 50 µM (inactive) | > 50 µM (inactive) | > 50 µM (inactive) | > 50 µM (inactive) | > 50 µM (inactive) | > 50 µM (inactive) | > 50 µM (inactive) | > 50 µM (inactive) | > 50 µM (inactive) | > 50 µM (inactive) | > 50 µM (inactive) | > 50 µM (inactive) | > 50 µM (inactive) | > 50 µM (inactive) | – | – | – | – | – | –
2 | CCn1c2ccccc2c2ccc3c(c21)C(=O)C=CC3=O | 1.89 µM (inactive) | – | 17.2 µM (inactive) | 12.2 µM (inactive) | 1.39 µM (inactive) | 14.4 µM (inactive) | 2.58 µM (inactive) | 13.5 µM (inactive) | 4.06 µM (inactive) | 20.4 µM (inactive) | 18.3 µM (inactive) | 21.1 µM (inactive) | 18.6 µM (inactive) | – | 4.47 µM (inactive) | 18 µM (inactive) | – | – | – | –
3 | CC1(c2ccccc2)CC(c2cccc([N+](=O)[O-])c2)=NO1 (stereo not drawn) | > 100 µM (inactive) | – | > 100 µM (inactive) | > 100 µM (inactive) | > 100 µM (inactive) | > 100 µM (inactive) | 30.1 µM (inactive) | > 100 µM (inactive) | > 100 µM (inactive) | 47.8 µM (inactive) | > 100 µM (inactive) | > 100 µM (inactive) | > 100 µM (inactive) | – | > 100 µM (inactive) | > 100 µM (inactive) | – | – | – | –
4 | CCN(CC)c1c(C(=O)/C=C/c2ccc(F)cc2)c(-c2ccccc2)nn(C)c1=O | 10.3 µM (inactive) | 11.6 µM (inactive) | 6.62 µM (inactive) | 3.85 µM (inactive) | 5.98 µM (inactive) | 4.85 µM (inactive) | 3.57 µM (inactive) | 3.82 µM (inactive) | 4.24 µM (inactive) | 12.2 µM (inactive) | 14.1 µM (inactive) | 4.66 µM (inactive) | 11.9 µM (inactive) | 17 µM (inactive) | 3.87 µM (inactive) | 14.7 µM (inactive) | – | – | – | –
5 | NC1=NN(c2ccccc2)C(=O)C1C(=O)C(=O)Nc1ccc(Cl)c(Cl)c1 (stereo not drawn) | > 100 µM (inactive) | 55.3 µM (inactive) | > 100 µM (inactive) | > 100 µM (inactive) | > 100 µM (inactive) | > 100 µM (inactive) | 84.9 µM (inactive) | > 100 µM (inactive) | > 100 µM (inactive) | > 100 µM (inactive) | > 100 µM (inactive) | > 100 µM (inactive) | > 100 µM (inactive) | 1.06 µM (active) | > 100 µM (inactive) | > 100 µM (inactive) | – | – | – | –
6 | COC(OC)c1cccnc1C | > 100 µM (inactive) | > 100 µM (inactive) | > 100 µM (inactive) | > 100 µM (inactive) | > 100 µM (inactive) | > 100 µM (inactive) | > 100 µM (inactive) | > 100 µM (inactive) | > 100 µM (inactive) | > 100 µM (inactive) | > 100 µM (inactive) | > 100 µM (inactive) | > 100 µM (inactive) | > 100 µM (inactive) | > 100 µM (inactive) | – | – | – | – | –
7 | COc1cc(C(CC(OC)OC)=C(C#N)C#N)cc(OC)c1OC | 21.4 µM (inactive) | 34.3 µM (inactive) | 10.4 µM (inactive) | 17.1 µM (inactive) | 39.4 µM (inactive) | 18.7 µM (inactive) | 13.9 µM (inactive) | 34.3 µM (inactive) | – | 19.5 µM (inactive) | 36.3 µM (inactive) | 21.9 µM (inactive) | 32.4 µM (inactive) | 39.5 µM (inactive) | 18.2 µM (inactive) | 0.485 µM (active) | – | – | – | –
8 | Cc1c2ccccc2c(=O)n2c(-c3ccccn3)cccc12 | > 100 µM (inactive) | > 100 µM (inactive) | > 100 µM (inactive) | > 100 µM (inactive) | > 100 µM (inactive) | > 100 µM (inactive) | > 100 µM (inactive) | 97.1 µM (inactive) | > 100 µM (inactive) | > 100 µM (inactive) | > 100 µM (inactive) | > 100 µM (inactive) | > 100 µM (inactive) | > 100 µM (inactive) | > 100 µM (inactive) | > 100 µM (inactive) | – | – | – | –
9 | O=C(Nc1ccccc1-c1nc2ccccc2[nH]c1=O)c1ccccc1 | 17.3 µM (inactive) | 29.9 µM (inactive) | 22.9 µM (inactive) | 21.4 µM (inactive) | 26.4 µM (inactive) | 28.7 µM (inactive) | 14.8 µM (inactive) | 20.3 µM (inactive) | 19.9 µM (inactive) | 20.9 µM (inactive) | 43.5 µM (inactive) | 23.5 µM (inactive) | 20.3 µM (inactive) | 24.2 µM (inactive) | 20.1 µM (inactive) | 25.2 µM (inactive) | – | – | – | –
10 | CCOC(=O)C1(CC)CCCCC(=O)N1 (stereo not drawn) | > 100 µM (inactive) | > 100 µM (inactive) | > 100 µM (inactive) | > 100 µM (inactive) | > 100 µM (inactive) | – | – | > 100 µM (inactive) | > 100 µM (inactive) | > 100 µM (inactive) | > 100 µM (inactive) | – | > 100 µM (inactive) | – | – | – | – | – | – | –
11 | NS(=O)(=O)c1nnc(NC(=O)N(c2ccccc2)c2ccccc2)s1 | 23 µM (inactive) | 28.6 µM (inactive) | – | 19.1 µM (inactive) | 17.7 µM (inactive) | 21.6 µM (inactive) | 16.8 µM (inactive) | 19.5 µM (inactive) | 27.9 µM (inactive) | 34 µM (inactive) | 39 µM (inactive) | 31.3 µM (inactive) | 59.6 µM (inactive) | 24.4 µM (inactive) | 29.4 µM (inactive) | 41.5 µM (inactive) | 14.2 µM (inactive) | 38.1 µM (inactive) | 23.4 µM (inactive) | 18.2 µM (inactive)
12 | COC(=O)/C(=N\O)C(C(=O)C=C(C)C)C(=O)C(=O)Nc1ccccc1C (stereo not drawn) | > 100 µM (inactive) | > 100 µM (inactive) | > 100 µM (inactive) | > 100 µM (inactive) | > 100 µM (inactive) | > 100 µM (inactive) | > 100 µM (inactive) | > 100 µM (inactive) | > 100 µM (inactive) | > 100 µM (inactive) | > 100 µM (inactive) | > 100 µM (inactive) | > 100 µM (inactive) | > 100 µM (inactive) | > 100 µM (inactive) | > 100 µM (inactive) | – | – | – | –
13 | Clc1ccc(Nc2nc3ccccc3nc2-c2cccs2)cc1Cl | 35.7 µM (inactive) | – | 34 µM (inactive) | 19.7 µM (inactive) | – | – | – | > 100 µM (inactive) | – | 40.4 µM (inactive) | 28.7 µM (inactive) | > 100 µM (inactive) | > 100 µM (inactive) | 36 µM (inactive) | 23.4 µM (inactive) | 34.1 µM (inactive) | – | – | – | –
14 | CS(=O)(=O)OCCN1CCN(C(=O)c2ccc(Cl)c3c(Nc4ccc(S(=O)(=O)N=C(N)N)cc4)c4ccccc4nc23)CC1 | > 100 µM (inactive) | > 100 µM (inactive) | > 100 µM (inactive) | > 100 µM (inactive) | > 100 µM (inactive) | > 100 µM (inactive) | – | > 100 µM (inactive) | > 100 µM (inactive) | > 100 µM (inactive) | > 100 µM (inactive) | > 100 µM (inactive) | > 100 µM (inactive) | > 100 µM (inactive) | > 100 µM (inactive) | > 100 µM (inactive) | – | – | – | –
15 | Oc1c(/N=N/c2ccccc2)c2ccccc2c2ccc3ccccc3c12 | 44.6 µM (inactive) | 48.6 µM (inactive) | – | 38.2 µM (inactive) | > 100 µM (inactive) | > 100 µM (inactive) | > 100 µM (inactive) | > 100 µM (inactive) | 33.2 µM (inactive) | 50.5 µM (inactive) | > 100 µM (inactive) | > 100 µM (inactive) | > 100 µM (inactive) | > 100 µM (inactive) | > 100 µM (inactive) | > 100 µM (inactive) | > 100 µM (inactive) | > 100 µM (inactive) | > 100 µM (inactive) | > 100 µM (inactive)
16 | CSc1ccc2c(cc1=O)[C@@H](NC(=O)c1ccc(Cl)cc1)CCc1cc(O)c(O)c(O)c1-2 | > 100 µM (inactive) | 45.9 µM (inactive) | 50.6 µM (inactive) | > 100 µM (inactive) | 22.1 µM (inactive) | 40.4 µM (inactive) | 15.4 µM (inactive) | 23.2 µM (inactive) | 29.6 µM (inactive) | 38.5 µM (inactive) | 80 µM (inactive) | > 100 µM (inactive) | > 100 µM (inactive) | 49.5 µM (inactive) | 18.2 µM (inactive) | > 100 µM (inactive) | – | – | – | –
17 | Cc1c(O)c(=O)ccn1C1OC(CO)C(O)C1O (stereo not drawn) | 85.9 µM (inactive) | > 100 µM (inactive) | 82 µM (inactive) | > 100 µM (inactive) | – | > 100 µM (inactive) | > 100 µM (inactive) | > 100 µM (inactive) | > 100 µM (inactive) | > 100 µM (inactive) | > 100 µM (inactive) | > 100 µM (inactive) | > 100 µM (inactive) | > 100 µM (inactive) | 62.1 µM (inactive) | > 100 µM (inactive) | – | – | – | –
18 | Cc1cc2c(ccc3c(C)cc(=O)oc32)o1 | > 100 µM (inactive) | > 100 µM (inactive) | > 100 µM (inactive) | > 100 µM (inactive) | > 100 µM (inactive) | > 100 µM (inactive) | > 83.6 µM (inactive) | > 100 µM (inactive) | > 100 µM (inactive) | > 100 µM (inactive) | > 100 µM (inactive) | > 100 µM (inactive) | > 100 µM (inactive) | > 100 µM (inactive) | > 100 µM (inactive) | > 100 µM (inactive) | – | – | – | –
